According to PMC5402304, “Oxoaporphine Metal Complexes (Co^II, Ni^II, Zn^II) with High Antitumor Activity by Inducing Mitochondria-Mediated Apoptosis and S-phase Arrest in HepG2” (Scientific Reports, 2017):
Where two headings read alike, the source gives them in different places.

Columns and labels:
[1] = system: Hep-G2; conditions: read-out: Antitumor activity: IC50; cited from earlier work
[2] = system: NCI-H460; conditions: read-out: Antitumor activity: IC50; cited from earlier work
[3] = system: SK-OV-3; set-up: method as in PMID 27898051; conditions: read-out: Antitumor activity: IC50; cited from earlier work
[4] = system: BEL-7404; conditions: read-out: Antitumor activity: IC50; cited from earlier work
[5] = system: A2780; set-up: method as in PMID 20023911; conditions: read-out: Antitumor activity: IC50; cited from earlier work
[6] = system: HT-29; set-up: method as in PMID 20023911; conditions: read-out: Antitumor activity: IC50; cited from earlier work
[7] = system: HepG2; assay: MTT cytotoxicity assay, HepG2; assay type: cell-based, human
Procedure: (§1) The in vitro cytotoxicity of OD, 1–3 and the corresponding metal salts were determined by MTT assay towards a panel of human tumor cells including HepG2, T-24, BEL-7404, MGC80-3, SK-OV-3/DDP and normal HL-7702 cells. As the positive control, cisplatin was dissolved at a concentration of 1 mM in 0.154 M NaCl[32].
(§2) The human tumor cell lines (BEL-7404, HepG2, MGC80–3, T-24, SK-OV-3/DDP and HeLa cells) and the human normal liver cell line HL-7702 were obtained from Shanghai Cell Bank in Chinese Academy of Sciences. Cells were cultured in Dulbecco’s modified Eagle’s medium (DMEM) or RPMI-1640 medium, which supplemented with 10% fetal bovine serum (FBS) and 100 U/mL penicillin and streptomycin. Cells were cultured at 37 °C in a humidified atmosphere with 5% CO2/95% air. Tested compounds (2.0 mM) were prepared as DMSO stock solution before they were diluted to working concentrations by PBS buffer (containing 0.5% DMSO), while cisplatin dissolved in 0.9% sodium chloride solution was used as positive controls.
(§3) Cells in their logarithmic phase were seeded in 96-well plates with 5.5 × 10^3/180 μL per well for 24 h. Then 20 μL of compounds at various concentrations were added to each well to achieve final concentrations of 1.25, 2.5, 5.0, 10.0, and 20.0 μM. All the cells were incubated with test compounds for another 48 h before MTT assay. Control wells contained media with 0.5% DMSO. After 48 h of cultivation, 10 μL of MTT (5 mg/mL in PBS) was added to each well, and cells were incubated at 37 °C for 6 h. The contents in the wells were pipetted out carefully, and the formazan crystals formed were dissolved in 100 μL of DMSO, and the absorbance was measured by enzyme labeling instrument with 490 nm/630 nm double wavelength measurement. The IC50 value was defined as a drug concentration killing 50% cells in comparison with untreated controls, which was calculated by the Bliss method (n = 5). All tests were repeated in at least three independent trials.

[8] = system: T-24; assay: MTT cytotoxicity assay, T-24; assay type: cell-based, human
Procedure: as §1, §2, §3

[9] = system: BEL-7404; assay: MTT cytotoxicity assay, BEL-7404; assay type: cell-based, human
Procedure: as §1, §2, §3

[10] = system: MGC80-3; assay: MTT cytotoxicity assay, MGC80-3; assay type: cell-based, human
Procedure: as §1, §2, §3

[11] = system: SK-OV-3/DDP; assay: MTT cytotoxicity assay, SK-OV-3/DDP; assay type: cell-based, human
Procedure: as §1, §2, §3

[12] = system: HL-7702; assay: MTT cytotoxicity assay, normal liver cells HL-7702; assay type: cell-based, human; conditions: 48 h
Procedure: as §1, §2, §3

[13] = system: HepG2, T-24, BEL-7404, MGC80-3, SK-OV-3/DDP; assay: MTT cytotoxicity assay, panel of human tumor cells; assay type: cell-based; conditions: 48 h, range over all the tested tumor cells, read-out: inhibition rate
Procedure: as §1, §2
Cells in their logarithmic phase were seeded in 96-well plates with 5.5 × 10^3/180 μL per well for 24 h. […] The contents in the wells were pipetted out carefully, and the formazan crystals formed were dissolved in 100 μL of DMSO, and the absorbance was measured by enzyme labeling instrument with 490 nm/630 nm double wavelength measurement. […]

[14] = system: HepG2 cells; assay: Cell cycle analysis by flow cytometry; assay type: cell-based, human; conditions: HepG2, 0.5 and 1.0 μM, 24 h, compared to untreated cells
Procedure: With the high cytotoxicity in vitro, HepG2 cells were selected to investigate the cell cycle treated with 1–3 (0.125, 0.25 and 0.5 μM) and OD (0.5 and 1.0 μM) for 24 h. […] However, 1–3 induced a significant increase of S-phase cell population in a dose-dependent manner.
Cell cycle progression and apoptosis were determined by flow cytometric analysis. (a) Cell cycle arrest assay: HepG2 cells in their logarithmic phase were plated into 50 mL plates at a final density of 5−6 × 10^6 cells/well overnight, then they were treated with various doses (0.25, 0.5 and 1.0 μM) of 1–3 for another 24 h. Cells were trypsinized, collected, and fixed in ice-cold 75% ethanol at −20 °C overnight. After centrifugation, the fixed cells were rinsed with ice-cold phosphate buffered saline (PBS), and resuspended in 0.5 mL of PBS containing 100 μg/mL RNase, 50 μg/mL propidium iodide (PI) in the dark for 5−10 min. The cell cycle distribution was analyzed by FACS Calibur flow cytometer (BD) and calculated using ModFIT LT software. (b) Apoptosis assay: 1 × 10^5 HepG2 cells were plated in 6-well plates, after incubation for 24 h with complexes 1–3 at 1.0, 2.0 and 5.0 μM, cells were collected, and Apoptosis Detection kit FITC Annexin V was used to analyze the cell apoptosis according to the manufacturer’s instructions.

[15] = system: HepG2 cells; assay: Comet assay for DNA damage; assay type: cell-based, human; set-up: unit not given here; conditions: HepG2, 1.0 μM, 24 h
Procedure: After the observation of significant S-phase arrest caused by 1–3, the study of DNA damage assay is necessary. The single cell gel electrophoresis technique (comet assay) is a simple, sensitive, reliable, and rapid method to detect DNA damage in eukaryotic cell[39]. As shown in Table 3 and Fig. 6, 1–3 at 1.0 μM induced DNA damage (fragmentation or unwinding) appeared as fluorescent comets with remarkable increase of tails size, especially for 3.
The comet assay is a simple method for measuring DNA strand breaks in cells. The comet assay reagent kit was purchased from Trevigen, and the experiment was carried out according to the manufacturer’s instructions. After treatment with OD and 1–3 at 1.0 μM, HepG2 cells were harvested and suspended at 1 × 10^6 Hep-G2 cells/mL in PBS. The cells suspension was mixed with melted LM agarose at a ratio of 1:10 (v/v). An aliquot (75 μL) of the mixture was immediately pipetted onto the slide (Comet Slide TM). After refrigeration for 30 min, the slide was immersed in pre-chilled lysis solution and left on ice for 60 min, followed by immersing in freshly prepared alkaline solution (300 mM NaOH, 1 mM EDTA, pH > 13) for 60 min on ice in darkness. After DNA unwinding, the slide was subjected to alkaline solution for electrophoresis in a Savant ps 250 system set at 300 mA and 1 volt/cm for 30 min. After electrophoresis, the slide was rinsed with distilled H2O, fixed in 70% ethanol for 5 min and air-dried overnight. DNA was stained with SYBR Green I (Trevigen) and visualized under a fluorescence microscope (Nikon, Eclipse E600).

Nc1cccc2c1C(=O)c1cccc3ccnc-2c13.[Cl][Ni][Cl] [Complex C00005]
IC50 [1]: 18.2 µM
IC50 [2]: 15.6 µM
IC50 [3]: 15 µM

Nc1c(Cl)ccc2c1-c1nccc3cccc(c13)C2=O.[Cl][Ni][Cl] [Complex C00006]
IC50 [1]: 28.8 µM
IC50 [2]: 35.2 µM
IC50 [3]: 29.1 µM

O=C1c2ccccc2-c2c3c(cc4ccnc1c24)OCO3.O=C1c2ccccc2-c2c3c(cc4ccnc1c24)OCO3.[Cl][Zn][Cl].[Cl][Zn][Cl] [Complex C00008]
IC50 [4]: 8.4 µM
IC50 [5]: 6.7 µM
IC50 [6]: 5.8 µM

COc1cc2c(cc1O)C(=O)c1nccc3cc(OC(C)C)c(OC)c-2c13 [OD]
inhibitive ratio ([7]; HepG2, 20 μmol/L, 48 h): 33.35±0.32%
IC50 ([7]; Homo sapiens, HepG2, 48 h, MTT): 8.98 ± 0.76 µM
IC50 ([8]; Homo sapiens, T-24, 48 h, MTT): 9.12 ± 0.11 µM
inhibitive ratio ([8]; T-24, 20 μmol/L, 48 h): 46.91±0.17%
inhibitive ratio ([9]; BEL-7404, 20 μmol/L, 48 h): 36.28±0.18%
IC50 ([9]; Homo sapiens, BEL-7404, 48 h, MTT): 24.8 ± 1.02 µM
IC50 ([10]; Homo sapiens, MGC-803, MGC80-3, 48 h, MTT): 23.3 ± 0.88 µM
inhibitive ratio ([10]; MGC80-3, 20 μmol/L, 48 h): 42.28±0.24%
IC50 ([11]; Homo sapiens, SK-OV-3/DDP, 48 h, MTT): 38.5 ± 1.42 µM
folds higher cytotoxicity than cisplatin ([11]; SK-OV-3/DDP, ratio of IC50): 2 folds
inhibitive ratio ([11]; SKOV-3/DDP, 20 μmol/L, 48 h): 45.57±1.94%
inhibitive ratio ([12]; HL-7702, 20 μmol/L): 46.55±0.67%
IC50 ([12]; Homo sapiens, L02, HL-7702 normal liver cells, MTT): 9.28 ± 0.43 µM
inhibition at 20 µM [13]: 33 to 47%
effect on the population of the cell cycle [14]: barely change the population of the cell cycle
Comet length [15]: 49.45 ± 6.19
Olive tail moment [15]: 0.13 ± 0.29
Tail length [15]: 1.96 ± 1.78
Tail moment [15]: 0.12 ± 0.21
